PubChem BioAssay AID1845194 (Molecular Pharmacology Branch, DTP, NCI, 2023)
pIC50: −log10 of the molar value. Values joined by “and” are separate entries in the source; they are usually repeats but may differ in a detail not shown here. Equal values may be shown once.

Tested on: 287954-098-R-J1 tumor spheroid viability
Assay: Anticancer human tumor 287954-098-R-J1 patient-derived Ewing sarcoma cell line growth inhibition
Settings: spheroids with HUVEC and MSC; for viability, T/C: stronger effect = lower value
Summary of the method: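 Complex spheroids of malignant cells with endothelial cells and mesenchymal stem cells; agents alone or combined, from near clinical Cmax (or 10 microM if unknown) down in half-log steps, 0.25% DMSO final.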

[1] = curve of first compound, second compound 1 µM
[2] = curve of first compound, second compound 3.16 µM
[3] = curve of first compound, second compound 10 µM
[4] = curve of first compound, second compound 31.6 µM
[5] = curve of first compound, second compound 100 µM
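Note: spheroids exposed to compound for 7 days before viability readout.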
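Throughout, for viability, T/C: luminescent signal taken as surrogate of viable cell content; 100% = DMSO vehicle control viability and lower means growth inhibition.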

What does the source list for Cc1cc(C)c(CNC(=O)c2cc(-c3ccc(CN4CCOCC4)cc3)cc3c2cnn3C2CCCC2)c(=O)[nH]1 + Cn1nnc2c(C(N)=O)ncn2c1=O?
pIC50 [1]: < 5.00; pIC50 [2]: < 5.00; pIC50 [3]: < 5.00; pIC50 [4]: < 5.00; pIC50 [5]: < 5.00; viability, T/C (second compound 1 µM, first compound 0.0316 µM): 104%; viability, T/C (second compound 1 µM, first compound 0.1 µM): 100%; viability, T/C (second compound 1 µM, first compound 0.316 µM): 100%; viability, T/C (second compound 1 µM, first compound 1 µM): 103%; viability, T/C (second compound 1 µM, first compound 3.16 µM): 105%; viability, T/C (second compound 1 µM, first compound 10 µM): 115%; viability, T/C (second compound 3.16 µM, first compound 0.0316 µM): 105%; viability, T/C (second compound 3.16 µM, first compound 0.1 µM): 107%; viability, T/C (second compound 3.16 µM, first compound 0.316 µM): 100%; viability, T/C (second compound 3.16 µM, first compound 1 µM): 108%; viability, T/C (second compound 3.16 µM, first compound 3.16 µM): 107%; viability, T/C (second compound 3.16 µM, first compound 10 µM): 108%; viability, T/C (second compound 10 µM, first compound 0.0316 µM): 110%; viability, T/C (second compound 10 µM, first compound 0.1 µM): 108%; viability, T/C (second compound 10 µM, first compound 0.316 µM): 107%; viability, T/C (second compound 10 µM, first compound 1 µM): 106%; viability, T/C (second compound 10 µM, first compound 3.16 µM): 99.3%; viability, T/C (second compound 10 µM, first compound 10 µM): 111%; viability, T/C (second compound 31.6 µM, first compound 0.0316 µM): 108%; viability, T/C (second compound 31.6 µM, first compound 0.1 µM): 117%; viability, T/C (second compound 31.6 µM, first compound 0.316 µM): 109%; viability, T/C (second compound 31.6 µM, first compound 1 µM): 105%; viability, T/C (second compound 31.6 µM, first compound 3.16 µM): 108%; viability, T/C (second compound 31.6 µM, first compound 10 µM): 105%; viability, T/C (second compound 100 µM, first compound 0.0316 µM): 108%; viability, T/C (second compound 100 µM, first compound 0.1 µM): 113%; viability, T/C (second compound 100 µM, first compound 0.316 µM): 111%; viability, T/C (second compound 100 µM, first compound 1 µM): 107%; viability, T/C (second compound 100 µM, first compound 3.16 µM): 96.2%; viability, T/C (second compound 100 µM, first compound 10 µM): 104%

What does the source list for Cn1ncnc1[C@H]1c2n[nH]c(=O)c3cc(F)cc(c23)N[C@@H]1c1ccc(F)cc1 + Cn1nnc2c(C(N)=O)ncn2c1=O?
pIC50 [1]: 6.26; pIC50 [2]: 6.27; pIC50 [3]: 6.30; pIC50 [4]: 7.24; pIC50 [5]: > 8.02; viability, T/C (second compound 1 µM, first compound 0.00949 µM): 111%; viability, T/C (second compound 1 µM, first compound 0.03 µM): 106%; viability, T/C (second compound 1 µM, first compound 0.0949 µM): 104%; viability, T/C (second compound 1 µM, first compound 0.3 µM): 94.7%; viability, T/C (second compound 1 µM, first compound 0.949 µM): 8.18%; viability, T/C (second compound 1 µM, first compound 3 µM): 2.42%; viability, T/C (second compound 3.16 µM, first compound 0.00949 µM): 112%; viability, T/C (second compound 3.16 µM, first compound 0.03 µM): 106%; viability, T/C (second compound 3.16 µM, first compound 0.0949 µM): 106%; viability, T/C (second compound 3.16 µM, first compound 0.3 µM): 99.2%; viability, T/C (second compound 3.16 µM, first compound 0.949 µM): 3.64%; viability, T/C (second compound 3.16 µM, first compound 3 µM): 2.29%; viability, T/C (second compound 10 µM, first compound 0.00949 µM): 102%; viability, T/C (second compound 10 µM, first compound 0.03 µM): 106%; viability, T/C (second compound 10 µM, first compound 0.0949 µM): 104%; viability, T/C (second compound 10 µM, first compound 0.3 µM): 89.2%; viability, T/C (second compound 10 µM, first compound 0.949 µM): 2.82%; viability, T/C (second compound 10 µM, first compound 3 µM): 2.58%; viability, T/C (second compound 31.6 µM, first compound 0.00949 µM): 104%; viability, T/C (second compound 31.6 µM, first compound 0.03 µM): 90.6%; viability, T/C (second compound 31.6 µM, first compound 0.0949 µM): 17.9%; viability, T/C (second compound 31.6 µM, first compound 0.3 µM): 2.5%; viability, T/C (second compound 31.6 µM, first compound 0.949 µM): 2.34%; viability, T/C (second compound 31.6 µM, first compound 3 µM): 2.04%; viability, T/C (second compound 100 µM, first compound 0.00949 µM): 3.4%; viability, T/C (second compound 100 µM, first compound 0.03 µM): 2.77%; viability, T/C (second compound 100 µM, first compound 0.0949 µM): 2.49%; viability, T/C (second compound 100 µM, first compound 0.3 µM): 2.57%; viability, T/C (second compound 100 µM, first compound 0.949 µM): 2.68%; viability, T/C (second compound 100 µM, first compound 3 µM): 2.3%

What does the source list for Cc1cc(C)c(CNC(=O)c2cc(-c3ccc(CN4CCOCC4)cc3)cc3c2cnn3C2CCCC2)c(=O)[nH]1?
viability, T/C (compound 0.0316 µM): 104% and 106% and 95.4%; viability, T/C (compound 0.1 µM): 95.6% and 106% and 114%; viability, T/C (compound 0.316 µM): 99.8% and 99.5% and 103%; viability, T/C (compound 1 µM): 102% and 97.1% and 101%; viability, T/C (compound 3.16 µM): 98.2% and 112% and 109%; viability, T/C (compound 10 µM): 113% and 108% and 114%; pIC50 (curve of compound): < 5.00

For COc1cc(C)[nH]c(=O)c1CN1CCc2c(Cl)cc(C(OC)C3COC3)c(Cl)c2C1=O (stereo not given), which viability, T/C (compound 0.0316 µM) is on record?
Its viability, T/C is 97.7% and 96.7% and 96.6%.

What about the viability, T/C (compound 0.1 µM) of the same compound?
Its viability, T/C is 94.9% and 102% and 98.6%.

What about the viability, T/C (compound 0.316 µM) of the same compound?
The viability, T/C was 82.7% and 91.7% and 95.5%.

What about the viability, T/C (compound 1 µM) of the same compound?
The viability, T/C was 93.9% and 89.7% and 90.5%.

What about the viability, T/C (compound 3.16 µM) of the same compound?
Its viability, T/C is 95.1% and 83.6% and 94.9%.

And the viability, T/C (compound 10 µM)?
The viability, T/C was 93% and 92.8% and 93.6%.

And the pIC50 (curve of compound)?
Its pIC50 is under 5.00.

Cn1nnc2c(C(N)=O)ncn2c1=O was tested. Which viability, T/C (compound 1 µM) did it give?
The viability, T/C was 101% [middle of 10 runs].

And the viability, T/C (compound 3.16 µM)?
The viability, T/C was 101% [middle of 10 runs].

And the viability, T/C (compound 10 µM)?
Its viability, T/C is 105% [middle of 10 runs].

And the viability, T/C (compound 31.6 µM)?
The viability, T/C was 111% [middle of 10 runs].

And the viability, T/C (compound 100 µM)?
The viability, T/C was 100% [middle of 10 runs].

What about the pIC50 (compound alone, run of 10/17/2019) of the same compound?
The pIC50 was under 4.00.
